Data from patent publication US8546392B2, “17Beta-hydroxysteroid dehydrogenase type 1 inhibitors for the treatment of hormone-related diseases” (Universitaet des Saarlandes, priority 2008, dated 2013).

Tests used:
CYP2C9 = CYP2C9 (Homo sapiens (Human), UniProt P11712); assay: P450 inhibition assay CYP2C9; conditions: read-out: IC50 (mean ± SD) [μM] CYP2C9
CYP3A4 = CYP3A4 (Homo sapiens (Human), UniProt P08684); assay: P450 inhibition assay CYP3A4; type: biochemical; conditions: read-out: IC50 (mean ± SD) [μM] CYP3A4
CYP3A4, sequence (P08684 whole entry): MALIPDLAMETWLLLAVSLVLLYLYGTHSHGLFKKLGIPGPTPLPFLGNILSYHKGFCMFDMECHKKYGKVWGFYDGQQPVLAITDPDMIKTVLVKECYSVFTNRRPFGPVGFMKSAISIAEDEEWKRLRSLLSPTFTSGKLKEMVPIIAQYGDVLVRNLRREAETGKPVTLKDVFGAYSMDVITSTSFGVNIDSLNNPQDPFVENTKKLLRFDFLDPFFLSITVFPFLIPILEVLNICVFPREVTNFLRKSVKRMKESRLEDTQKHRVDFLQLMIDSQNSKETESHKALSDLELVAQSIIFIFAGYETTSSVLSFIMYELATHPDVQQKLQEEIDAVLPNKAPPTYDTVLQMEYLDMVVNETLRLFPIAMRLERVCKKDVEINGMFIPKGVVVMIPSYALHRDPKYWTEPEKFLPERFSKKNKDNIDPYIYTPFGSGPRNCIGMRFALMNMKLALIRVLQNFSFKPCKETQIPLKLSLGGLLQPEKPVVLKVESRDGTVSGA

CYP1A2 = CYP1A2 (Homo sapiens (Human), UniProt P05177); assay: P450 inhibition assay CYP1A2
CYP1A2, sequence (P05177 whole entry): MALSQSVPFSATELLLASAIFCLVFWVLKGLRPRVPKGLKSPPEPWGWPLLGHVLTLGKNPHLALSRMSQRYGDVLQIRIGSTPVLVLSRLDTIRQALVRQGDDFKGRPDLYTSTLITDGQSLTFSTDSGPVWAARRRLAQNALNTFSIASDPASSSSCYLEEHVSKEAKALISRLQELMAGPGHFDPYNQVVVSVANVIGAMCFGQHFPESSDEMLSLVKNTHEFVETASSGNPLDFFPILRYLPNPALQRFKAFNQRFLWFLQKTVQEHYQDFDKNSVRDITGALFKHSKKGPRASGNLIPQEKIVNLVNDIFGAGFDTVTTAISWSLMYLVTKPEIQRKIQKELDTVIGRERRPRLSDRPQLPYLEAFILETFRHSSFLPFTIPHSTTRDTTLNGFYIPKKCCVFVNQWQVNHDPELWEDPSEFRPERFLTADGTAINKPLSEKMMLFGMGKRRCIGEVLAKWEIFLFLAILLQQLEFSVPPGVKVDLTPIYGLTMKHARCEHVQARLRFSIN

CYP2C19 = CYP2C19 (Homo sapiens (Human), UniProt P33261); assay: P450 inhibition assay CYP2C19; conditions: read-out: IC50 (mean ± SD) [μM] CYP2C19
CYP2C19, sequence (P33261 whole entry): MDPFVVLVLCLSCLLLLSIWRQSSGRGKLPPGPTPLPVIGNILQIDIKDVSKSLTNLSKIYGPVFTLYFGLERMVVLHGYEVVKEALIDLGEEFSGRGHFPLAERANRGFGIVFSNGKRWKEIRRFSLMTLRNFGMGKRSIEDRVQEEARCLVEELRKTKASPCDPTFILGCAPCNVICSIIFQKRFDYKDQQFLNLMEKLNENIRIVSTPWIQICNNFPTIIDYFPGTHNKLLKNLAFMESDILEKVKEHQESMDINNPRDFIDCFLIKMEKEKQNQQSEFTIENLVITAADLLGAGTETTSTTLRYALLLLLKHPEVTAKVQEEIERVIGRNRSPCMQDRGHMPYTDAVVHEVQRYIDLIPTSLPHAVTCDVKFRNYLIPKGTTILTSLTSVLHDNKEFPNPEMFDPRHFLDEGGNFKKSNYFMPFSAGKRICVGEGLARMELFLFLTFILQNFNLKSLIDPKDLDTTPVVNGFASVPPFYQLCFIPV

[1] = Test for metabolic stability, liver microsomes
Method: The assay was performed with liver microsomes of rats.
The incubation solution (180 μl) consists of 90 μl of a microsomal suspension of 0.33 mg/ml protein in 100 mM phosphate buffer, pH 7.4, with 90 μl NADP-regenerating system (NADP: 1 mM, glucose-6-phosphate 5 mM, glucose-6-phosphate dehydrogenase: 5 U/ml, MgCl2 5 mM).
The reaction is started by adding 20 μl of the compound to be tested in 20% ACN to the microsome/buffer mixture preincubated at 37° C. After 0, 15, 30 and 60 minutes, 200 μl of sample solution is withdrawn and subjected to ACN precipitation. The isolation of the compounds is effected by adding 200 μl ACN that contains the internal standard (1 μM) to 200 μl of sample solution and calibration standard. After shaking for 10 s and centrifugation at 4000 g, an aliquot of the supernatant is subjected to LC-MS/MS. Two controls are included, namely a positive control with 7-ethoxycoumarin as a reference to verify the microsomal enzyme activity, and a negative control in which microsomes are used that were heated for 25 minutes without a regenerating system, in order to ensure that the loss of substance is actually due to metabolization.
The amount of compound in a sample is expressed as the percent fraction of the compound remaining as compared to time t=0 (100%). The percent fraction is plotted versus time.

CYP2D6 = CYP2D6 (Homo sapiens (Human), UniProt P10635); assay: P450 inhibition assay CYP2D6; type: biochemical; conditions: read-out: IC50 (mean ± SD) [μM] CYP2D6
CYP2D6, sequence (P10635 whole entry): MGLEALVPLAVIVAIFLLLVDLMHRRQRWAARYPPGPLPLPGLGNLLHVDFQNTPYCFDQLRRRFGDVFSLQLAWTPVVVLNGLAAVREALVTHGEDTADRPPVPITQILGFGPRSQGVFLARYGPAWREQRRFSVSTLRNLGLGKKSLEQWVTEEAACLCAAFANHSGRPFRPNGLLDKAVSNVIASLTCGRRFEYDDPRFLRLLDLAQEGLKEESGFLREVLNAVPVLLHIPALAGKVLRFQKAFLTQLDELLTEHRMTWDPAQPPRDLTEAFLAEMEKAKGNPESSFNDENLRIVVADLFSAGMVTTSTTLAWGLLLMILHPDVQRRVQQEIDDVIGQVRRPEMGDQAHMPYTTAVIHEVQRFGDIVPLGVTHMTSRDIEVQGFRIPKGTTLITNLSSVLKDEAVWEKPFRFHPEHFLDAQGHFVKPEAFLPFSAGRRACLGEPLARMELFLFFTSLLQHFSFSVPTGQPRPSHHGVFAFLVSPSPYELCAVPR

[2] = CaCo-2 assay (transport experiments); type: in vitro ADME; conditions: human, Caco-2; initial donor concentration 50 μM
Method: (§1) Four reference compounds (atenolol, testosterone, ketoprofene and erythromycin) were employed in each assay for evaluating the transport properties of the CaCo-2 cells. The initial concentration of the compounds in the donor compartment was 50 μM (in buffer with 1% ethanol or DMSO). […] For glycoprotein P (P-gp) studies, bidirectional experiments were performed. The absorptive and secretory permeabilities (Papp(a-b) and Papp(b-a)) were determined. Thus, erythromycin was used as a substrate, and verapamil was used as an inhibitor of P-gp. Each experiment was performed in triplicate. The integrity of the monolayer was determined by means of TEER (transepithelial electric resistance) and the permeability for each assay was determined using Lucifer Yellow. All samples of the CaCo-2 transport experiments were analyzed by means of LC/MS/MS after dilution with buffer (1:1 with 2% acetic acid).

CaCo-2 cells = assay: CaCo-2 assay (transport experiments); type: in vitro ADME
Method: as §1

17β-HSD1 = 17β-HSD1 (Homo sapiens (Human), UniProt P14061); assay: 17β-HSD1 test assay (recombinant protein from Sf9 insect cells, 3H-estrone/NADPH); type: biochemical
17β-HSD1, sequence (P14061 whole entry): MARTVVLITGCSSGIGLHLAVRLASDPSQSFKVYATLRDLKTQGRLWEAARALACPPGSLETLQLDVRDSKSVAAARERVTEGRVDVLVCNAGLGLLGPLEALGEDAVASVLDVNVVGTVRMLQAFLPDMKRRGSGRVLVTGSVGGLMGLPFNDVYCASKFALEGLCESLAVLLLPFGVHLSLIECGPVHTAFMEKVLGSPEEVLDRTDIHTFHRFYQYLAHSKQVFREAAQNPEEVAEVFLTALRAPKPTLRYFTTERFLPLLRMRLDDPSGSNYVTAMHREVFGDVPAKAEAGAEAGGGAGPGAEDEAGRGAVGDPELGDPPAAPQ
How it was run: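 Sf9-expressed recombinant enzyme (0.1 μg/ml) with 30 nM 3H-estrone and 1 mM NADPH in 20 mM KH2PO4 pH 7.4, 30 min at RT; inhibitor at 1 μM or 100 nM, 1% DMSO final. Quenched with TCA; conversion measured by reversed-phase HPLC with flow scintillation detection.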

17β-HSD2 = 17β-HSD2 (Homo sapiens (Human), UniProt P37059); assay: 17β-HSD2 test assay (recombinant protein from Sf9 insect cells, 3H-estradiol/NAD+); type: biochemical
17β-HSD2, sequence (P37059 whole entry): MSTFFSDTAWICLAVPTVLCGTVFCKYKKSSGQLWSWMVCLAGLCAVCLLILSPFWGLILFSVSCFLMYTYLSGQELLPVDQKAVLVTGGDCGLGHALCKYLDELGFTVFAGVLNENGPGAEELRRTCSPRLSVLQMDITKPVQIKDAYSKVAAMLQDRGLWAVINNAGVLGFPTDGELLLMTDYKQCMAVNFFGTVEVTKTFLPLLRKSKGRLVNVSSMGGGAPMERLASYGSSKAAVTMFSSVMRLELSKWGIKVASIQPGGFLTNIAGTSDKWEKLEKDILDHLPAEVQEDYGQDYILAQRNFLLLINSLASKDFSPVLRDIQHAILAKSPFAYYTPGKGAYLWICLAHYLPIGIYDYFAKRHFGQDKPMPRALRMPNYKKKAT
Method: Recombinant protein obtained from Sf9 insect cells (0.1 μg/ml) is incubated with 20 mM KH2PO4, pH 7.4, 30 nM ^3H-estradiol and 1 mM NAD+ for 30 min at RT in the presence of the potential inhibitor in a concentration of 1 μM or 100 nM. The stock solutions of the compounds are prepared in DMSO so that the final concentration of DMSO in the sample is 1%. After the prescribed incubation time, the reaction is quenched by adding trichloroacetic acid (10% final concentration). The samples are centrifuged in microtitration plates at 400 rpm for 10 min, and the supernatants are charged on a reversed-phase HPLC equipped with a Waters Symmetrie C18 column and
Waters Sentry Guard column. The isocratic HPLC run is performed at RT with a flow rate of 1 ml/min and acetonitrile/water 48:52 as the eluent. The radioactivity was measured by means of a Packard Flow Scintillation Analyzer. The percent inhibition was calculated by means of the formulas stated above.

[3] = In vivo pharmacokinetics (rat), single oral administration; conditions: single oral administration 50 mg/kg, male Wistar rats
CYP2B6 = CYP2B6 (Homo sapiens (Human), UniProt P20813); assay: P450 inhibition assay CYP2B6; conditions: read-out: IC50 (mean ± SD) [μM] CYP2B6
CYP2B6, sequence (P20813 whole entry): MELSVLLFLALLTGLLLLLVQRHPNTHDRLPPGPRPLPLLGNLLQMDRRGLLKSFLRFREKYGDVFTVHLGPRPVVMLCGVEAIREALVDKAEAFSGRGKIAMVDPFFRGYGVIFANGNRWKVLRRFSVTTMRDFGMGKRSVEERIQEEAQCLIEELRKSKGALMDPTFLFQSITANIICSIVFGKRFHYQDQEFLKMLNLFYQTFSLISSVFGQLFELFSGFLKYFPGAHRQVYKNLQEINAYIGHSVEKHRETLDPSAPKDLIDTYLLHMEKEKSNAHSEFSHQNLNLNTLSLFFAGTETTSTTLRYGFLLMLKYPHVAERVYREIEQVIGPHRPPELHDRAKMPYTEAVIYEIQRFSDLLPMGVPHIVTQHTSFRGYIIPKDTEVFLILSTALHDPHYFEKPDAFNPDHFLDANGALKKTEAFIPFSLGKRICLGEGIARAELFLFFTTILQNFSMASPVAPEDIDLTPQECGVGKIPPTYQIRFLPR

CYP2C9, sequence (P11712 whole entry): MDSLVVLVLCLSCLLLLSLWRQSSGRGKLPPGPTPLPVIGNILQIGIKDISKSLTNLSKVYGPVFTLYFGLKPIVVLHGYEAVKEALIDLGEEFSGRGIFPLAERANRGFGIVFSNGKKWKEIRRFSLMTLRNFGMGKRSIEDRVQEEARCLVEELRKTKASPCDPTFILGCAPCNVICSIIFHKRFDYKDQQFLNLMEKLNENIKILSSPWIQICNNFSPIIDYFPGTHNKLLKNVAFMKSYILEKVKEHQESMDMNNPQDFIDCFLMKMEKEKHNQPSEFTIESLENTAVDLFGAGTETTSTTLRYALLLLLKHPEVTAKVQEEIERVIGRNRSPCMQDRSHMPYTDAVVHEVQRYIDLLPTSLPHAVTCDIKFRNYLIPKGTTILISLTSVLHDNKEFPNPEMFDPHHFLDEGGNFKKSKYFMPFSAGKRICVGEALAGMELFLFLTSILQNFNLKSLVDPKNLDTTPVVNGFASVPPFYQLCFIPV

Question: Which results are given for `Oc1cccc(-c2ccc3c(-c4cccnc4)c(O)ccc3c2)c1` [Compound 59, 6-(3-Hydroxyphenyl)-1-(pyridin-3-yl)naphthalene-2-ol]?
Answer: IC50 (CYP2C9): 0.15 ± 0.03 µM; IC50 (CYP3A4): 0.221 ± 0.002 µM; IC50 (CYP1A2): 14 nM; IC50 (CYP2C19): 0.88 ± 0.03 µM; Slope (−k) ([1]; rat liver microsomes): −0.051; half-life ([1]; rat, liver microsomes, pH 7.4): 0.227 h; microsomal CLint ([1]; rat, liver microsomes, pH 7.4): 340 µL/min/mg; IC50 (CYP2D6): 22.9 ± 1.85 µM; Papp at 180 min, 50 μM [2]: 13.8 ×10⁻⁶ cm/s; mass balance [% ± SD] (CaCo-2 cells): 29.9 ± 2.4%; Permeability (CaCo-2 cells; class in words): high; final basolateral concentration [μM ± SD] (CaCo-2 cells; initial donor concentration 50 μM): 11.0 ± 0.5 µM; inhibition at 1 µM (17β-HSD1; read-out: HSD 1 μM (% inhibition of HSD1)): 92.3%; inhibition at 0.1 µM (17β-HSD1; read-out: HSD1 100 nM (% inhibition)): 87.4%; inhibition at 0.1 µM (17β-HSD2; read-out: HSD2 100 nM (% inhibition), inhibitor 100 nM): 66.1%; inhibition at 1 µM (17β-HSD2; read-out: HSD2 1 μM (% inhibition), inhibitor 1 μM): 90.3%; AUC(0-t) ([3]; rat, plasma): 203 ng·h/mL; Tmax ([3]; rat, plasma): 2 h; AUC(0-inf) ([3]; rat, plasma, extrapolated to ∞): 203 ng·h/mL; t1/2z [3]: 1.54 h; tz [3]: 8.0 h; IC50 (CYP2B6): 5.34 ± 0.391 µM
